Source: patent publication US9469650B2, “Melampomagnolide B derivatives” (BOARD OF TRUSTEES OF THE UNIVERSITY OF ARKANSAS, priority 2013, dated 2016)

What was measured:
DU-145 = test: panel of 60 human tumor cell lines, growth inhibition (Prostate Cancer)
HS 578T = test: panel of 60 human tumor cell lines, growth inhibition (Breast Cancer); conditions: for Percent Growth: HS 578T
IGROV1 = test: panel of 60 human tumor cell lines, growth inhibition (Ovarian Cancer); conditions: for Percent Growth: IGROVI
HT29 = test: panel of 60 human tumor cell lines, growth inhibition (Colon Cancer); conditions: for Percent Growth: HT29
SK-OV-3 = test: panel of 60 human tumor cell lines, growth inhibition (Ovarian Cancer)
786-0 = test: panel of 60 human tumor cell lines, growth inhibition (Renal Cancer)
HCC-2998 = test: panel of 60 human tumor cell lines, growth inhibition (Colon Cancer); conditions: for Percent Growth: HCC-2998
NCI-H460 = test: panel of 60 human tumor cell lines, growth inhibition (Non-Small Cell Lung Cancer)
SNB-19 = test: panel of 60 human tumor cell lines, growth inhibition (CNS Cancer)
ACHN = test: panel of 60 human tumor cell lines, growth inhibition (Renal Cancer)
NCI-H522 = test: panel of 60 human tumor cell lines, growth inhibition (Non-Small Cell Lung Cancer)
HOP-62 = test: as above
NCI-H226 = test: as above
TK-10 = test: panel of 60 human tumor cell lines, growth inhibition (Renal Cancer); conditions: for GI50: TK-10, TK-10; for Percent Growth: TK-10
U251 = test: panel of 60 human tumor cell lines, growth inhibition (CNS Cancer); conditions: for Percent Growth: U251
NCI-H23 = test: panel of 60 human tumor cell lines, growth inhibition (Non-Small Cell Lung Cancer)
BT-549 = test: panel of 60 human tumor cell lines, growth inhibition (Breast Cancer)

C=C1C(=O)O[C@H]2[C@H]1CC/C(COC(=O)NCCc1ccccn1)=C\CC[C@@]1(C)O[C@@H]21 [JVM 61, ((1aR,7aS,10aS,10bS,E)-1a-methyl-8-methylene-9-oxo-1a,2,3,6,7,7a,8,9,10a,10b-decahydrooxireno[2′,3′:9,10]cyclodeca[1,2-b]furan-5-yl)methyl-(2-(pyridin-2-yl)ethyl)carbamate]
Percent Growth (DU-145; DU-145, Log10 Concentration −4.0): −87% | Percent Growth (DU-145; DU-145, Log10 Concentration −5.0): 26% | Percent Growth (DU-145; DU-145, Log10 Concentration −6.0): 97% | Percent Growth (DU-145; DU-145, Log10 Concentration −7.0): 108% | Percent Growth (DU-145; DU-145, Log10 Concentration −8.0): 102% | GI50 (DU-145; Homo sapiens, DU-145): 4.59 µM | CC50 (DU-145; Homo sapiens, DU-145, read-out: LC50): 47 µM | IC (TGI) (DU-145; Homo sapiens, DU-145, read-out: TGI): 16.9 µM | Percent Growth (HS 578T; Log10 Concentration −4.0): −25% | Percent Growth (HS 578T; Log10 Concentration −5.0): 28% | Percent Growth (HS 578T; Log10 Concentration −6.0): 94% | Percent Growth (HS 578T; Log10 Concentration −7.0): 96% | Percent Growth (HS 578T; Log10 Concentration −8.0): 98% | GI50 (HS 578T; Homo sapiens, Hs-578T): 4.66 µM | CC50 (HS 578T; Homo sapiens, Hs-578T, read-out: LC50): ≥ 100 µM | IC (TGI) (HS 578T; Homo sapiens, Hs-578T, read-out: TGI): 33.9 µM | GI50 (IGROV1; Homo sapiens, IGROV-1): 14.4 µM | CC50 (IGROV1; Homo sapiens, IGROV-1, read-out: LC50): 78.9 µM | IC (TGI) (IGROV1; Homo sapiens, IGROV-1, read-out: TGI): 33.8 µM | Percent Growth (IGROV1; Log10 Concentration −4.0): −64% | Percent Growth (IGROV1; Log10 Concentration −5.0): 72% | Percent Growth (IGROV1; Log10 Concentration −6.0): 102% | Percent Growth (IGROV1; Log10 Concentration −7.0): 104% | Percent Growth (IGROV1; Log10 Concentration −8.0): 106% | Percent Growth (HT29; Log10 Concentration −4.0): −78% | Percent Growth (HT29; Log10 Concentration −5.0): 24% | Percent Growth (HT29; Log10 Concentration −6.0): 110% | Percent Growth (HT29; Log10 Concentration −7.0): 106% | Percent Growth (HT29; Log10 Concentration −8.0): 104% | GI50 (HT29; Homo sapiens, HT-29): 4.69 µM | CC50 (HT29; Homo sapiens, HT-29, read-out: LC50): 53.1 µM | IC (TGI) (HT29; Homo sapiens, HT-29, read-out: TGI): 17.2 µM | GI50 (SK-OV-3; Homo sapiens, SK-OV-3): 26.2 µM | CC50 (SK-OV-3; Homo sapiens, SK-OV-3, read-out: LC50): > 100 µM | IC (TGI) (SK-OV-3; Homo sapiens, SK-OV-3, read-out: TGI): 97.4 µM | Percent Growth (SK-OV-3; SK-OV-3, Log10 Concentration −4.0): −1% | Percent Growth (SK-OV-3; SK-OV-3, Log10 Concentration −5.0): 87% | Percent Growth (SK-OV-3; SK-OV-3, Log10 Concentration −6.0): 103% | Percent Growth (SK-OV-3; SK-OV-3, Log10 Concentration −7.0): 187% | Percent Growth (SK-OV-3; SK-OV-3, Log10 Concentration −8.0): 106% | Percent Growth (786-0; 786-0, Log10 Concentration −4.0): −93% | Percent Growth (786-0; 786-0, Log10 Concentration −5.0): 15% | Percent Growth (786-0; 786-0, Log10 Concentration −6.0): 96% | Percent Growth (786-0; 786-0, Log10 Concentration −7.0): 101% | Percent Growth (786-0; 786-0, Log10 Concentration −8.0): 101% | GI50 (786-0; Homo sapiens, 786-0): 3.7 µM | CC50 (786-0; Homo sapiens, 786-0, read-out: LC50): 39.8 µM | IC (TGI) (786-0; Homo sapiens, 786-0, read-out: TGI): 13.8 µM | Percent Growth (HCC-2998; Log10 Concentration −4.0): −86% | Percent Growth (HCC-2998; Log10 Concentration −5.0): 87% | Percent Growth (HCC-2998; Log10 Concentration −6.0): 100% | Percent Growth (HCC-2998; Log10 Concentration −7.0): 103% | Percent Growth (HCC-2998; Log10 Concentration −8.0): 101% | GI50 (HCC-2998; Homo sapiens, HCC 2998): 16.3 µM | CC50 (HCC-2998; Homo sapiens, HCC 2998, read-out: LC50): 62.1 µM | IC (TGI) (HCC-2998; Homo sapiens, HCC 2998, read-out: TGI): 31.8 µM | GI50 (NCI-H460; Homo sapiens, NCI-H460): 14.4 µM | CC50 (NCI-H460; Homo sapiens, NCI-H460, read-out: LC50): 97.4 µM | IC (TGI) (NCI-H460; Homo sapiens, NCI-H460, read-out: TGI): 37.5 µM | Percent Growth (NCI-H460; NCI-H460, Log10 Concentration −4.0): −51% | Percent Growth (NCI-H460; NCI-H460, Log10 Concentration −5.0): 69% | Percent Growth (NCI-H460; NCI-H460, Log10 Concentration −6.0): 102% | Percent Growth (NCI-H460; NCI-H460, Log10 Concentration −7.0): 102% | Percent Growth (NCI-H460; NCI-H460, Log10 Concentration −8.0): 104% | GI50 (SNB-19; Homo sapiens, SNB-19): 27.7 µM | CC50 (SNB-19; Homo sapiens, SNB-19, read-out: LC50): > 100 µM | IC (TGI) (SNB-19; Homo sapiens, SNB-19, read-out: TGI): 160 µM | Percent Growth (SNB-19; SNB-19, Log10 Concentration −4.0): 3% | Percent Growth (SNB-19; SNB-19, Log10 Concentration −5.0): 88% | Percent Growth (SNB-19; SNB-19, Log10 Concentration −6.0): 94% | Percent Growth (SNB-19; SNB-19, Log10 Concentration −7.0): 93% | Percent Growth (SNB-19; SNB-19, Log10 Concentration −8.0): 97% | GI50 (ACHN; Homo sapiens): 2.75 µM | CC50 (ACHN; Homo sapiens, read-out: LC50): 34.5 µM | IC (TGI) (ACHN; Homo sapiens, read-out: TGI): 11.3 µM | Percent Growth (ACHN; Log10 Concentration −4.0): −98% | Percent Growth (ACHN; Log10 Concentration −5.0): 5% | Percent Growth (ACHN; Log10 Concentration −6.0): 85% | Percent Growth (ACHN; Log10 Concentration −7.0): 97% | Percent Growth (ACHN; Log10 Concentration −8.0): 102% | GI50 (NCI-H522; Homo sapiens, NCI-H522): 1.64 µM | CC50 (NCI-H522; Homo sapiens, NCI-H522, read-out: LC50): 9.29 µM | IC (TGI) (NCI-H522; Homo sapiens, NCI-H522, read-out: TGI): 3.9 µM | Percent Growth (NCI-H522; NCI-H522, Log10 Concentration −4.0): −69% | Percent Growth (NCI-H522; NCI-H522, Log10 Concentration −5.0): −54% | Percent Growth (NCI-H522; NCI-H522, Log10 Concentration −6.0): 76% | Percent Growth (NCI-H522; NCI-H522, Log10 Concentration −7.0): 96% | Percent Growth (NCI-H522; NCI-H522, Log10 Concentration −8.0): 95% | Percent Growth (HOP-62; HOP-62, Log10 Concentration −4.0): −65% | Percent Growth (HOP-62; HOP-62, Log10 Concentration −5.0): 91% | Percent Growth (HOP-62; HOP-62, Log10 Concentration −6.0): 108% | Percent Growth (HOP-62; HOP-62, Log10 Concentration −7.0): 102% | Percent Growth (HOP-62; HOP-62, Log10 Concentration −8.0): 99% | GI50 (HOP-62; Homo sapiens, HOP-62): 18.4 µM | CC50 (HOP-62; Homo sapiens, HOP-62, read-out: LC50): 79.7 µM | IC (TGI) (HOP-62; Homo sapiens, HOP-62, read-out: TGI): 38.3 µM | GI50 (NCI-H226; Homo sapiens, NCI-H226): 14.1 µM | CC50 (NCI-H226; Homo sapiens, NCI-H226, read-out: LC50): 81.3 µM | IC (TGI) (NCI-H226; Homo sapiens, NCI-H226, read-out: TGI): 33.8 µM | Percent Growth (NCI-H226; NCI-H226, Log10 Concentration −4.0): −62% | Percent Growth (NCI-H226; NCI-H226, Log10 Concentration −5.0): 70% | Percent Growth (NCI-H226; NCI-H226, Log10 Concentration −6.0): 91% | Percent Growth (NCI-H226; NCI-H226, Log10 Concentration −7.0): 92% | Percent Growth (NCI-H226; NCI-H226, Log10 Concentration −8.0): 94% | GI50 (TK-10; Homo sapiens): 3.13 µM | GI50 (TK-10; Homo sapiens, 5-dose assay): 3.78 µM | CC50 (TK-10; Homo sapiens, TK-10, read-out: LC50): 37.5 µM | IC (TGI) (TK-10; Homo sapiens, TK-10, read-out: TGI): 12.9 µM | Percent Growth (TK-10; Log10 Concentration −4.0): −96% | Percent Growth (TK-10; Log10 Concentration −5.0): 12% | Percent Growth (TK-10; Log10 Concentration −6.0): 102% | Percent Growth (TK-10; Log10 Concentration −7.0): 104% | Percent Growth (TK-10; Log10 Concentration −8.0): 101% | GI50 (U251; Homo sapiens, U-251): 12.5 µM | CC50 (U251; Homo sapiens, U-251, read-out: LC50): 55.6 µM | IC (TGI) (U251; Homo sapiens, U-251, read-out: TGI): 25.4 µM | Percent Growth (U251; Log10 Concentration −4.0): −89% | Percent Growth (U251; Log10 Concentration −5.0): 65% | Percent Growth (U251; Log10 Concentration −6.0): 93% | Percent Growth (U251; Log10 Concentration −7.0): 91% | Percent Growth (U251; Log10 Concentration −8.0): 97% | GI50 (NCI-H23; Homo sapiens, NCI-H23): 11.3 µM | CC50 (NCI-H23; Homo sapiens, NCI-H23, read-out: LC50): 78.8 µM | IC (TGI) (NCI-H23; Homo sapiens, NCI-H23, read-out: TGI): 29.9 µM | Percent Growth (NCI-H23; NCI-H23, Log10 Concentration −4.0): −62% | Percent Growth (NCI-H23; NCI-H23, Log10 Concentration −5.0): 56% | Percent Growth (NCI-H23; NCI-H23, Log10 Concentration −6.0): 100% | Percent Growth (NCI-H23; NCI-H23, Log10 Concentration −7.0): 101% | Percent Growth (NCI-H23; NCI-H23, Log10 Concentration −8.0): 104% | Percent Growth (BT-549; BT-549, Log10 Concentration −4.0): −95% | Percent Growth (BT-549; BT-549, Log10 Concentration −6.0): 85% | Percent Growth (BT-549; BT-549, Log10 Concentration −7.0): 96% | Percent Growth (BT-549; BT-549, Log10 Concentration −8.0): 96% | GI50 (BT-549; Homo sapiens, BT-549): 2.6 µM | CC50 (BT-549; Homo sapiens, BT-549, read-out: LC50): 33.6 µM | IC (TGI) (BT-549; Homo sapiens, BT-549, read-out: TGI): 10.1 µM
